Earlier results in patent publication US20190167706A1, “Solid Pharmaceutical Composition Comprising Amorphous Sofosbuvir” (Sandoz AG, priority 2016, published 2019).

SMILES | moisture stability: deliquescence under stress conditions (40° C. and a relative humidity (RH) of 75%) | relative humidity at which the substance deliquesces (amorphous form, compared to crystalline forms)
CC(C)OC(=O)[C@H](C)N[P@](=O)(OC[C@H]1O[C@@H](n2ccc(=O)[nH]c2=O)[C@](C)(F)[C@@H]1O)Oc1ccccc1 [sofosbuvir, (S)-isopropyl 2-(((S)-(((2R,3R,4R,5R)-5-(2,4-dioxo-3,4-dihydropyrimidin-1(2H)-yl)-4-fluoro-3-hydroxy-4-methyltetrahydrofuran-2-yl)methoxy)(phenoxy)phosphoryl)amino)propanoate] | deliquesces after a few hours | –
CC(C)OC(=O)[C@H](C)N[P@](=O)(OC[C@H]1O[C@@H](n2ccc(=O)[nH]c2=O)[C@](C)(F)[C@@H]1O)Oc1ccccc1 [Amorphous sofosbuvir, (S)-isopropyl 2-(((S)-(((2R,3R,4R,5R)-5-(2,4-dioxo-3,4-dihydropyrimidin-1(2H)-yl)-4-fluoro-3-hydroxy-4-methyltetrahydrofuran-2-yl)methoxy)(phenoxy)phosphoryl)amino)propanoate] | – | above 50%
